Results: patent US20230357708A1, “BI[…] PARA-HYDROXYBENZOIC ACID FROM METHANOL AND METHANE” (The Board of Trustees of the Leland Stanford Junior …, priority 2020, published 2023)

Legend:
[1] = tested on: M. buryatense 5GB1 (5G) strain; assay: 4HBA toxicity test, streaks on plates with horizontal 4HBA-gradient; type: cell-based, Methylotuvimicrobium buryatense; conditions: background-strain streaks, 4HBA-gradient 0-10 mM, pH 8.9
Method: (§1) Fast growers were mutants with changed 4HBA-operon sequence. Fast-growing mutant #1 produced some 4HBA. […] The toxic conditions in turn favoured re-arrangement and/or point mutations of the plasmid. Streaks of the transconjugants on solid medium without methanol, grew comparatively well The solid medium was supplemented with nutrient broth, NMS2.1kan and MeOH. Toxicity tests with varying 4HBA concentrations was performed.

[2] = tested on: M. alcahphilum 20Z strain; assay: as above; type: cell-based, Methylomicrobium alcaliphilum; conditions: background-strain streaks, 4HBA-gradient 0-10 mM, pH 8.9
Method: as §1

For `O=C(O)c1ccc(O)cc1` [4HBA, para-hydroxybenzoic acid], the “effect of 4HBA on growth” value [1] was “significant inhibitory effect”, the “effect of 4HBA on growth compared with the M. alcahphilum 20Z strain” value [1] was “more severely affected” and the “effect of 4HBA on growth” value [2] was “significant inhibitory effect”.
